Assay results taken from patent US12258328B2, “6-membered heteroaryl-containing aminopyridine compounds as EGFR inhibitors” (YUHAN CORPORATION, priority 2021, dated 2025).
Where two headings read alike, the source gives them in different places.

Assays:
EGFR L858R/C797S = EGFR L858R/C797S (Homo sapiens, UniProt P00533, C797S/L858R); test: Biochemical EGFR kinase assay (Lance Ultra TR-FRET), double mutant L858R/C797S
How it was run: (§1)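 Enzyme reactions lasted 1 hour at room temperature with test compounds between 0.003 and 10 μM, followed by 10 mM EDTA quench.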

EGFR del19/C797S = EGFR del19/C797S (Homo sapiens, UniProt P00533, C797S/DEL746-750); test: Biochemical EGFR kinase assay (Lance Ultra TR-FRET), double mutant del19/C797S
Sequence of EGFR del19/C797S (P00533 with tags, fused parts or gaps DEL746-750/C797S): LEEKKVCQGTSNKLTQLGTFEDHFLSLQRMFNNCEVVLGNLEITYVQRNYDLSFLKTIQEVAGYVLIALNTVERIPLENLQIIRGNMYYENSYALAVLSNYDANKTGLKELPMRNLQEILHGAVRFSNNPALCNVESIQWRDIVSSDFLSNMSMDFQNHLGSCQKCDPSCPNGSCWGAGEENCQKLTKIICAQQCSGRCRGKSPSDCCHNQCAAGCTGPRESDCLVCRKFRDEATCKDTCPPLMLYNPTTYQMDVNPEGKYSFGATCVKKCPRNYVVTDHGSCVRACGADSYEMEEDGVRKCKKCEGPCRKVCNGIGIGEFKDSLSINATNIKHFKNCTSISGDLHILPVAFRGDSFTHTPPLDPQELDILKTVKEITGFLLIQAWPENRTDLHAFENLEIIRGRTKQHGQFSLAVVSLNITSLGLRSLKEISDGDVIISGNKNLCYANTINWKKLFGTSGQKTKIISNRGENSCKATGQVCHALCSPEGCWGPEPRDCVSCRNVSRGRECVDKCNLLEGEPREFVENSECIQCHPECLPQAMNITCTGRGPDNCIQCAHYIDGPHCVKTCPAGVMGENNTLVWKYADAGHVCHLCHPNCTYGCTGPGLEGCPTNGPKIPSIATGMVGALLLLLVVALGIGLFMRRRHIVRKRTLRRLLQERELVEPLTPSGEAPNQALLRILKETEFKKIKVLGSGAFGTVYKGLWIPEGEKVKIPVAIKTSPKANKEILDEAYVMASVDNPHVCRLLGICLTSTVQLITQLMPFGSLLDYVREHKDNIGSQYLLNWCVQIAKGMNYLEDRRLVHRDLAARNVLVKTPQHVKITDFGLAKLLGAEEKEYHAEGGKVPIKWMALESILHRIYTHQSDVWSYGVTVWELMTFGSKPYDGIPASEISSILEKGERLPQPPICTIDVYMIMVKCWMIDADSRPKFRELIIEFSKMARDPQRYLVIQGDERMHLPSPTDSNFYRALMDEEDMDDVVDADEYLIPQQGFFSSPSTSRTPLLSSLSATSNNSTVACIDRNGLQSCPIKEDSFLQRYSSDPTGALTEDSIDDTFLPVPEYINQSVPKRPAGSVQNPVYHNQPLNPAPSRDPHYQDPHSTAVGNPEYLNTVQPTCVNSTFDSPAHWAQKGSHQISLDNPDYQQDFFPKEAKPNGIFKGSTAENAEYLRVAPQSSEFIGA
How it was run: as §1

EGFR L858R/T790M/C797S = EGFR L858R/T790M/C797S (Homo sapiens, UniProt P00533, C797S/L858R/T790M); test: Biochemical EGFR kinase assay (Lance Ultra TR-FRET), triple mutant L858R/T790M/C797S
Sequence of EGFR L858R/T790M/C797S (P00533 25-1210 T790M/C797S/L858R): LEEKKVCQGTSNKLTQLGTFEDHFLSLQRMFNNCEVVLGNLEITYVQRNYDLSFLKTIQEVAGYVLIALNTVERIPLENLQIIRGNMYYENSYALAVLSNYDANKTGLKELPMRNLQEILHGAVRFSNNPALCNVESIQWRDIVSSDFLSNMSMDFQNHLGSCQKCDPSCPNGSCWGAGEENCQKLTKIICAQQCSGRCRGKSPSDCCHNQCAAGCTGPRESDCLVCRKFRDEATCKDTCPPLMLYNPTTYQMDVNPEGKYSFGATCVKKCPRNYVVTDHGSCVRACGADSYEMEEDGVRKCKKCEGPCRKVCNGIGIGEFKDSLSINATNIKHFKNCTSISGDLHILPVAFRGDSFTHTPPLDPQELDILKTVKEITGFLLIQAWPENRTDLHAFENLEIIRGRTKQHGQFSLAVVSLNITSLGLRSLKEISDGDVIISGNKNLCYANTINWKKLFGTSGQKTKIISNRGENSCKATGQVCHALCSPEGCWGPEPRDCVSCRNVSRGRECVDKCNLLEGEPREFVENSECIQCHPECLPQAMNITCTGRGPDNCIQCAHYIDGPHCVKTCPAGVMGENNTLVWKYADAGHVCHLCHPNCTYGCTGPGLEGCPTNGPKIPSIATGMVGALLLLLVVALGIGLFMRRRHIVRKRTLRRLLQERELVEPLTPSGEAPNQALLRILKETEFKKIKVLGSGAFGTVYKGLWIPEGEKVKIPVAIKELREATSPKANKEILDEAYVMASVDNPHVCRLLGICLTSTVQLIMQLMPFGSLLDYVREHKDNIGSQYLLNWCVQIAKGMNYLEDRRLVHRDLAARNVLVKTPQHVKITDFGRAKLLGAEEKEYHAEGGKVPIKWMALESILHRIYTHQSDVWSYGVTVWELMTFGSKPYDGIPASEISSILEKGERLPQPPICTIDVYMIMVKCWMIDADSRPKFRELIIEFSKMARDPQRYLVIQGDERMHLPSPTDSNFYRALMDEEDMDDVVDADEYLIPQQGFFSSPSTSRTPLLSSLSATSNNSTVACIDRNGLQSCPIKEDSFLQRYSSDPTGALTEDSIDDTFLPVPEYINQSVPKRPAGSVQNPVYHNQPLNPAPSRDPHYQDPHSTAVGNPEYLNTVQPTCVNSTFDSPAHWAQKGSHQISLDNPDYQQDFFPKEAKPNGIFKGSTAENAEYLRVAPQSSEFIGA
How it was run: as §1

EGFR wildtype = EGFR wildtype (Homo sapiens, UniProt P00533); test: Biochemical EGFR kinase assay (Lance Ultra TR-FRET), wildtype
Sequence of EGFR wildtype (P00533 25-1210): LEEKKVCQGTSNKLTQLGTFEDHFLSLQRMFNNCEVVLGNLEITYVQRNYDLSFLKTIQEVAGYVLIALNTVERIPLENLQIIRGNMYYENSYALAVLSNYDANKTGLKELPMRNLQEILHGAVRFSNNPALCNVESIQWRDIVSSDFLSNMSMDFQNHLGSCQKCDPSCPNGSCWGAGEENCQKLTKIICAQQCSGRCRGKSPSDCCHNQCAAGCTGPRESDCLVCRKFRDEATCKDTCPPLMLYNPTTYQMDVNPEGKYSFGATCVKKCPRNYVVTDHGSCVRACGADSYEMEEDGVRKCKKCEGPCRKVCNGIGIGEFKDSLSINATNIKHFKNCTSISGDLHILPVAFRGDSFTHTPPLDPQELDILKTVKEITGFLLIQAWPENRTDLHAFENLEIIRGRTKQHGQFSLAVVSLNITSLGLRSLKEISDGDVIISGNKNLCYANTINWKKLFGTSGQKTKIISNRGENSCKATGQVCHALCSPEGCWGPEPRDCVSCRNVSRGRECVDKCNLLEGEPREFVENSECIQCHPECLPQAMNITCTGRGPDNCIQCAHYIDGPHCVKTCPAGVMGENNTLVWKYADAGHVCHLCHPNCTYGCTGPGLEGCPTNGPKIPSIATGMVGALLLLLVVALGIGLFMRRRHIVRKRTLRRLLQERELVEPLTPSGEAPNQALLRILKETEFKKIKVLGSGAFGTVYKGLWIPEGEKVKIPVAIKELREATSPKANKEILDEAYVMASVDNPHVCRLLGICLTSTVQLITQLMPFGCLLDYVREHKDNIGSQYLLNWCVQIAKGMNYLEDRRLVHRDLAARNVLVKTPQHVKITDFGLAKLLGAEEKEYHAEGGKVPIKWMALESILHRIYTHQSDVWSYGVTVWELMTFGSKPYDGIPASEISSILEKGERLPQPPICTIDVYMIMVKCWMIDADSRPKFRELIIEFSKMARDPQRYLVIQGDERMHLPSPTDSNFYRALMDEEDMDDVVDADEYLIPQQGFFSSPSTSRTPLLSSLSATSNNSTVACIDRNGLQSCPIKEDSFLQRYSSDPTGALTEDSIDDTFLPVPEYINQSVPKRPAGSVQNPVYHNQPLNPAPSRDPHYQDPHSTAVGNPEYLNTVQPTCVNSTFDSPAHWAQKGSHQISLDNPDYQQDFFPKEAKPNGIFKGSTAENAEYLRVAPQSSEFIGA
How it was run: as §1

EGFR del19/T790M/C797S = EGFR del19/T790M/C797S (Homo sapiens, UniProt P00533, C797S/DEL746-750/T790M); test: Biochemical EGFR kinase assay (Lance Ultra TR-FRET), triple mutant del19/T790M/C797S
Sequence of EGFR del19/T790M/C797S (P00533 with tags, fused parts or gaps DEL746-750/T790M/C797S): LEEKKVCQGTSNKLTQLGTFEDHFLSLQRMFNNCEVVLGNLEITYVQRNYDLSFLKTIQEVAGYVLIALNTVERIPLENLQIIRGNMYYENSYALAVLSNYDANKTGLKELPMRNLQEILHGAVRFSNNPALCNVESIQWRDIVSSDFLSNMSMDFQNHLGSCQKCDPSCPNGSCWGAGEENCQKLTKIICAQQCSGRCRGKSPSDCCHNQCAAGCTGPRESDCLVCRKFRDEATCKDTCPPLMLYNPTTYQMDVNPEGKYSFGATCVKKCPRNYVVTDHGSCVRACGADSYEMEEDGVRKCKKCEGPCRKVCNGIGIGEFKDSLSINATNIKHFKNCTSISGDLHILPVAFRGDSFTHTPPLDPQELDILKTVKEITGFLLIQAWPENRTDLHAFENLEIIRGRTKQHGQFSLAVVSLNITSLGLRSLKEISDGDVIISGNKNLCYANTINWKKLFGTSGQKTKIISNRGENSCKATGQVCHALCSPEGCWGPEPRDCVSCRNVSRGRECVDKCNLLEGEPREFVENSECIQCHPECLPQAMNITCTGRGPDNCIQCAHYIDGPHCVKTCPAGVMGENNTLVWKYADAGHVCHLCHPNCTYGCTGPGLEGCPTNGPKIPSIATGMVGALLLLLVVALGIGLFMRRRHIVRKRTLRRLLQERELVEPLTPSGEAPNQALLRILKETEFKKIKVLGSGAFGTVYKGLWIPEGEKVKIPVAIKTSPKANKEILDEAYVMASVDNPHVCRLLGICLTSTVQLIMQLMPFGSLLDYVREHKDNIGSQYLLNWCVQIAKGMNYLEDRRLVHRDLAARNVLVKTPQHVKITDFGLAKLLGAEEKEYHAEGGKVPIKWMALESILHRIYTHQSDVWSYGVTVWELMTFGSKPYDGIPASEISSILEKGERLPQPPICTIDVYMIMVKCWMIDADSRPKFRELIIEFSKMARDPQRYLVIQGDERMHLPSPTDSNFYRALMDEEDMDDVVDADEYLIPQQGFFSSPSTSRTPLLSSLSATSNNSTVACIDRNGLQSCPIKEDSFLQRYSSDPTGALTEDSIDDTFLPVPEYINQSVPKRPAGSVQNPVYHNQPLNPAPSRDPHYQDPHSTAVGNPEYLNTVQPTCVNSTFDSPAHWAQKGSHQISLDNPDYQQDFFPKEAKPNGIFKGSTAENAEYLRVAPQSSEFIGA
How it was run: as §1

[1] = Km ATP, read-out: IC50 L858R/C797S (nM) Km ATP
[2] = IC50 del19/C797S (nM) 100 μM ATP, 100 μM ATP
[3] = Km ATP, read-out: IC50 del19/C797S (nM) Km ATP
[4] = IC50 L858R/T790M/C797S (nM) 100 μM ATP, 100 μM ATP
[5] = Km ATP, read-out: IC50 L858R/T790M/C797S (nM) Km ATP
[6] = IC50 WT (nM) 100 μM ATP, 100 μM ATP
[7] = Km ATP, read-out: IC50 WT (nM) Km ATP
[8] = IC50 del19/T790M/C797S (nM) 100 μM ATP, 100 μM ATP
[9] = Km ATP, read-out: IC50 del19/T790M/C797S (nM) Km ATP
[10] = ATP at Km, read-out: IC50 L858R/C797S, Km ATP
[11] = ATP at Km, read-out: IC50 del19/C797S, Km ATP
[12] = ATP at Km, read-out: IC50 L858R/T790M/C797S, Km ATP
[13] = IC50 L858R/T790M/C797S, 100 μM ATP
[14] = ATP at Km, read-out: IC50 WT, Km ATP
[15] = ATP at Km, read-out: IC50 del19/T790M/C797S, Km ATP
[16] = IC50 del19/T790M/C797S, 100 μM ATP
[17] = IC50 L858R/C797S (nM) 100 μM ATP, 100 μM ATP

IC50 (EGFR L858R/C797S; [1]) [nM]	IC50 (EGFR del19/C797S; [2]) [nM]	IC50 (EGFR del19/C797S; [3]) [nM]	IC50 (EGFR L858R/T790M/C797S; [4]) [nM]	IC50 (EGFR L858R/T790M/C797S; [5]) [nM]	IC50 (EGFR wildtype; [6]) [nM]	IC50 (EGFR wildtype; [7]) [nM]	IC50 (EGFR del19/T790M/C797S; [8]) [nM]	IC50 (EGFR del19/T790M/C797S; [9]) [nM]	IC50 (EGFR L858R/C797S; [10]) [nM]	IC50 (EGFR L858R/C797S; IC50 L858R/C797S, 100 μM ATP) [nM]	IC50 (EGFR del19/C797S; [11]) [nM]	IC50 (EGFR del19/C797S; IC50 del19/C797S, 100 μM ATP) [nM]	IC50 (EGFR L858R/T790M/C797S; [12]) [nM]	IC50 (EGFR L858R/T790M/C797S; [13]) [nM]	IC50 (EGFR wildtype; [14]) [nM]	IC50 (EGFR wildtype; IC50 WT, 100 μM ATP) [nM]	IC50 (EGFR del19/T790M/C797S; [15]) [nM]	IC50 (EGFR del19/T790M/C797S; [16]) [nM]	SMILES	further results
–	–	–	–	–	–	–	–	–	0.2	–	1.9	–	0.4	–	9	–	1	–	CN1CCC(Oc2ccc(-c3cnc(Nc4ccnc(-c5cnn(S(=O)(=O)C6CC6)c5)n4)cc3NC3CCC(F)(CO)CC3)nc2)CC1 (stereo not drawn) [Example 259, (4-((6′-((2-(1-(Cyclopropylsulfonyl)-1H-pyrazol-4-yl)pyrimidin-4-yl)amino)-5-((1-methylpiperidin-4-yl)oxy)-[2,3′-bipyridin]-4′-yl)amino)-1-fluorocyclohexyl)methanol]	–
–	–	–	–	–	–	–	–	–	0.02	–	0.5	–	0.03	–	1.9	–	0.1	–	CN1CCC(Oc2ccc(-c3cnc(Nc4ccnc(-c5cnn(S(=O)(=O)C6CC6)c5)n4)cc3NC3CCC(F)(F)CC3)nc2)CC1 [Example 255, N^6′-(2-(1-(Cyclopropylsulfonyl)-1H-pyrazol-4-yl)pyrimidin-4-yl)-N^4′-(4,4-difluorocyclohexyl)-5-((1-methylpiperidin-4-yl)oxy)-[2,3′-bipyridine]-4′,6′-diamine]	–
–	–	–	–	–	–	–	–	–	10.2	–	16.1	–	2.5	–	33.8	–	6.9	–	CC(C)(O)[C@H]1CC[C@@H](Nc2cc(Nc3ccnc(-c4cnn(S(=O)(=O)C5CC5)c4)n3)ncc2-c2ccc(N3CC(F)(F)C3)cn2)CC1 [Example 225, 2-((1s,4s)-4-((6′-((2-(1-(Cyclopropylsulfonyl)-1H-pyrazol-4-yl)pyrimidin-4-yl)amino)-5-(3,3-difluoroazetidin-1-yl)-[2,3′-bipyridin]-4′-yl)amino)cyclohexyl)propan-2-ol]	IC50 (EGFR L858R/C797S; read-out: IC50 L858R/C797S, 100 μM ATP): 799 nM; IC50 (EGFR del19/C797S; read-out: IC50 del19/C797S, 100 μM ATP): 19.8 nM; IC50 (EGFR L858R/T790M/C797S; read-out: IC50 L858R/T790M/C797S, 100 μM ATP): 4.4 nM; IC50 (EGFR wildtype; read-out: IC50 WT, 100 μM ATP): > 10000 nM; IC50 (EGFR del19/T790M/C797S; read-out: IC50 del19/T790M/C797S, 100 μM ATP): 6 nM
–	–	–	–	–	–	–	–	–	15.4	–	134	–	5.9	–	733	–	19.8	–	CC(C)(F)c1ccc(-c2cnc(Nc3ccnc(-c4cnn(S(=O)(=O)C5CC5)c4)n3)cc2NC2CCC(F)(F)CC2)nc1 [Example 240, N^6′-(2-(1-(Cyclopropylsulfonyl)-1H-pyrazol-4-yl)pyrimidin-4-yl)-N^4′-(4,4-difluorocyclohexyl)-5-(2-fluoropropan-2-yl)-[2,3′-bipyridine]-4′,6′-diamine]	–

Continued, compound first:

SMILES	IC50 (EGFR L858R/C797S; [1]) [nM]	IC50 (EGFR del19/C797S; [2]) [nM]	IC50 (EGFR del19/C797S; [3]) [nM]	IC50 (EGFR L858R/T790M/C797S; [4]) [nM]	IC50 (EGFR L858R/T790M/C797S; [5]) [nM]	IC50 (EGFR wildtype; [6]) [nM]	IC50 (EGFR wildtype; [7]) [nM]	IC50 (EGFR del19/T790M/C797S; [8]) [nM]	IC50 (EGFR del19/T790M/C797S; [9]) [nM]	IC50 (EGFR L858R/C797S; [10]) [nM]	IC50 (EGFR L858R/C797S; IC50 L858R/C797S, 100 μM ATP) [nM]	IC50 (EGFR del19/C797S; [11]) [nM]	IC50 (EGFR del19/C797S; IC50 del19/C797S, 100 μM ATP) [nM]	IC50 (EGFR L858R/T790M/C797S; [12]) [nM]	IC50 (EGFR L858R/T790M/C797S; [13]) [nM]	IC50 (EGFR wildtype; [14]) [nM]	IC50 (EGFR wildtype; IC50 WT, 100 μM ATP) [nM]	IC50 (EGFR del19/T790M/C797S; [15]) [nM]	IC50 (EGFR del19/T790M/C797S; [16]) [nM]	further results
Cc1ccc(-c2cnc(Nc3ccnc(-c4cnn(S(=O)(=O)C5CC5)c4)n3)cc2N[C@H]2CC[C@@](C)(O)CC2)nn1 [Example 52, (1s,4s)-4-((2-((2-(1-(Cyclopropylsulfonyl)-1H-pyrazol-4-yl)pyrimidin-4-yl)amino)-5-(6-methylpyridazin-3-yl)pyridin-4-yl)amino)-1-methylcyclohexan-1-ol]	0.6	0.6	0.5	0.3	0.1	> 10000	3	0.5	0.3	–	–	–	–	–	–	–	–	–	–	–
O=S(=O)(C1CC1)n1cc(-c2nccc(Nc3cc(N[C@H]4CC[C@@H](CO)CC4)c(-c4ccc(OC(F)(F)F)cn4)cn3)n2)cn1 [Example 195, ((1s,4s)-4-((6′-((2-(1-(Cyclopropylsulfonyl)-1H-pyrazol-4-yl)pyrimidin-4-yl)amino)-5-(trifluoromethoxy)-[2,3′-bipyridin]-4′-yl)amino)cyclohexyl)methanol]	–	–	–	–	–	–	–	–	–	3.6	36.9	6.6	16.3	1	2.5	25	> 10000	3.3	3.6	–
O=S(=O)(C1CC1)n1cc(-c2nccc(Nc3cc(N[C@H]4CC[C@@H](NCCF)CC4)c(-c4ccc(CO)cn4)cn3)n2)cn1 [Example 21, (6′-((2-(1-(Cyclopropylsulfonyl)-1H-pyrazol-4-yl)pyrimidin-4-yl)amino)-4′-(((1s,4s)-4-((2-fluoroethyl)amino)cyclohexyl)amino)-[2,3′-bipyridin]-5-yl)methanol]	1	1.2	0.5	0.6	0.3	5570	6.3	0.3	0.3	–	–	–	–	–	–	–	–	–	–	IC50 (EGFR L858R/C797S; [17]): 11.6 nM
O=S(=O)(C1CC1)n1cc(-c2nccc(Nc3cc(N[C@H]4CC[C@@H](CO)CC4)c(-c4ccc(CO)cn4)cn3)n2)cn1 [Example 22, (6′-((2-(1-(Cyclopropylsulfonyl)-1H-pyrazol-4-yl)pyrimidin-4-yl)amino)-4′-(((1s,4s)-4-(hydroxymethyl)cyclohexyl)amino)-[2,3′-bipyridin]-5-yl)methanol]	0.2	0.2	0.1	0.2	0.2	165	0.3	0.3	0.3	–	–	–	–	–	–	–	–	–	–	IC50 (EGFR L858R/C797S; [17]): 1.1 nM
O=S(=O)(C1CC1)n1cc(-c2nccc(Nc3cc(N[C@H]4CC[C@@H](CO)CC4)c(-c4ccc(N5CCCC5)cn4)cn3)n2)cn1 [Example 81, ((1s,4s)-4-((6′-((2-(1-(Cyclopropylsulfonyl)-1H-pyrazol-4-yl)pyrimidin-4-yl)amino)-5-(pyrrolidin-1-yl)-[2,3′-bipyridin]-4′-yl)amino)cyclohexyl)methanol]	3.3	19	4	6	2	3650	11.7	3.1	2.4	–	–	–	–	–	–	–	–	–	–	IC50 (EGFR L858R/C797S; [17]): 13 nM
CN1CCN(C(=O)c2ccc(-c3cnc(Nc4ccnc(-c5cnn(S(=O)(=O)C6CC6)c5)n4)cc3N[C@H]3CC[C@@H](C(C)(C)O)CC3)nc2)CC1 [Example 203, (6′-((2-(1-(Cyclopropylsulfonyl)-1H-pyrazol-4-yl)pyrimidin-4-yl)amino)-4′-(((1s,4s)-4-(2-hydroxypropan-2-yl)cyclohexyl)amino)-[2,3′-bipyridin]-5-yl)(4-methylpiperazin-1-yl)methanone]	–	–	–	–	–	–	–	–	–	0.1	0.8	0.1	0.3	0.2	0.3	0.3	395	0.4	0.7	–
CC(C)(O)[C@H]1CC[C@@H](Nc2cc(Nc3ccnc(-c4cnn(S(=O)(=O)C5CC5)c4)n3)ncc2-c2cc(NC3CC(F)(F)C3)ccn2)CC1 [Example 215, 2-((1s,4s)-4-((6′-((2-(1-(Cyclopropylsulfonyl)-1H-pyrazol-4-yl)pyrimidin-4-yl)amino)-4-((3,3-difluorocyclobutyl)amino)-[2,3′-bipyridin]-4′-yl)amino)cyclohexyl)propan-2-ol]	–	–	–	–	–	–	–	–	–	13.6	46.4	7.8	36.4	7.6	17.5	21.4	6110	9.1	25.4	–
CC(C)(O)[C@H]1CC[C@@H](Nc2cc(Nc3ccnc(-c4cnn(S(=O)(=O)C5CC5)c4)n3)ncc2-c2cnc(F)cn2)CC1 [Example 186, 2-((1s,4s)-4-((2-((2-(1-(Cyclopropylsulfonyl)-1H-pyrazol-4-yl)pyrimidin-4-yl)amino)-5-(5-fluoropyrazin-2-yl)pyridin-4-yl)amino)cyclohexyl)propan-2-ol]	–	–	–	–	–	–	–	–	–	5.8	165	11.5	56.8	–	4.8	744	> 10000	3.8	29	–
CC(C)(O)[C@H]1CC[C@@H](Nc2cc(Nc3ccnc(-c4cnn(S(=O)(=O)C5CC5)c4)n3)ncc2-c2cnc(OC(F)F)cn2)CC1 [Example 130, 2-((1s,4s)-4-((2-((2-(1-(Cyclopropylsulfonyl)-1H-pyrazol-4-yl)pyrimidin-4-yl)amino)-5-(5-(difluoromethoxy)pyrazin-2-yl)pyridin-4-yl)amino)cyclohexyl)propan-2-ol]	239	–	281	–	1.7	–	> 10000	–	3.9	–	–	–	–	–	–	–	–	–	–	–
